One assay deals with human RIP1 kinase domain (2-375) (Homo sapiens (Human), UniProt Q13546). Put plainly: biochemical. The assay is classed as biochemical. The conditions noted are these: Table 1; apparent Ki (Morrison tight-binding fit); 50 nM RIP1 kinase domain, 50 uM ATP, 2 hours incubation; read-out: RIP1 Ki. The method, boiled down: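 Ki^app comes from Morrison tight-binding fits of fractional activity versus compound concentration. Activity was read as ADP production, via tracer displacement lowering fluorescence polarization (633 nm laser). Conditions: 2 h, 50 nM insect-cell-expressed enzyme, 50 uM ATP, 30 mM MgCl2, 1 mM DTT, 0.5% DMSO, pH 7.5 Hepes.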
Sequence of human RIP1 kinase domain (2-375) (Q13546 2-375): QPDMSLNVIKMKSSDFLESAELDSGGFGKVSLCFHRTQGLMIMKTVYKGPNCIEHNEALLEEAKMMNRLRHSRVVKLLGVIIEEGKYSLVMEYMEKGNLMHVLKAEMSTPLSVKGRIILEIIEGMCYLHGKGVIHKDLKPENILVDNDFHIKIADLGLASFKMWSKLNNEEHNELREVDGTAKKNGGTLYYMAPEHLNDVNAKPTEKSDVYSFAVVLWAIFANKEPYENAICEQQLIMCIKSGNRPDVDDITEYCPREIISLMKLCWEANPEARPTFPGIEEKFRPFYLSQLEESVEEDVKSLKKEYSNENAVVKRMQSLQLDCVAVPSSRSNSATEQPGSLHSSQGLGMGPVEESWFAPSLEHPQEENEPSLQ
Consider `CN1C(=O)[C@@H](NC(=O)c2n[nH]c3c2CC2CC2(C)C3)COc2ccccc21` (stereo partly drawn) [Example 1, 5a-methyl-N—((S)-5-methyl-4-oxo-2,3,4,5-tetrahydrobenzo[b][1,4]oxazepin-3-yl)-1,4,4a,5,5a,6-hexahydrocyclopropa[f]indazole-3-carboxamide], for which the Ki stood at 4.7 µM.

`CN1C(=O)[C@@H](NC(=O)c2n[nH]c3c2CCC2(CC2)C3)COc2ccccc21` [Example 2, (S)—N-(5-methyl-4-oxo-2,3,4,5-tetrahydrobenzo[b][1,4]oxazepin-3-yl)-1′,4′,5′,7′-tetrahydrospiro[cyclopropane-1,6′-indazole]-3′-carboxamide]: the Ki was 6.5 µM. For the molecule `O=C(N[C@H]1COc2ccccc2NC1=O)c1n[nH]c2c1CC1CC1C2` (stereo partly drawn) [Example 4, N—((S)-4-oxo-2,3,4,5-tetrahydrobenzo[b][1,4]oxazepin-3-yl)-1,4,4a,5,5a,6-hexahydrocyclopropa[f]indazole-3-carboxamide], the Ki turned out to be 5.5 µM.

In the case of `CN1C(=O)[C@@H](NC(=O)c2n[nH]c3c2CN(CC(F)(F)F)CC3)COc2ccccc21` [Example 5, (S)—N-(5-methyl-4-oxo-2,3,4,5-tetrahydrobenzo[b][1,4]oxazepin-3-yl)-5-(2,2,2-trifluoroethyl)-4,5,6,7-tetrahydro-1H-pyrazolo[4,3-c]pyridine-3-carboxamide], the Ki came to 1.5 µM. Turning to `CN1C(=O)[C@@H](NC(=O)c2cc3n(n2)CCCN(c2ccccc2)C3)COc2ccccc21` [Example 6, N-[(3S)-5-methyl-4-oxo-2,3-dihydro-1,5-benzoxazepin-3-yl]-5-phenyl-4,6,7,8-tetrahydro pyrazolo[1,5-a][1,4]diazepine-2-carboxamide], the Ki stood at 0.375 µM. On the same count and under the same terms, then `CN1C(=O)[C@@H](NC(=O)c2n[nH]c3c2CC(c2ccccc2)OC3)COc2ccccc21` (stereo partly drawn) [Example 9, N—((S)-5-methyl-4-oxo-2,3,4,5-tetrahydrobenzo[b][1,4]oxazepin-3-yl)-5-phenyl-1,4,5,7-tetrahydropyrano[3,4-c]pyrazole-3-carboxamide], with 0.282 µM; and `CC1Cn2c(cnc2C(=O)N[C@H]2COc3ccccc3N(C)C2=O)CO1` (stereo partly drawn) [Example 10, 6-methyl-N—((S)-5-methyl-4-oxo-2,3,4,5-tetrahydrobenzo[b][1,4]oxazepin-3-yl)-6,8-dihydro-5H-imidazo[5,1-c][1,4]oxazine-3-carboxamide], with 2.6 µM; and `CC1CCc2cnc(C(=O)N[C@H]3COc4ccccc4N(C)C3=O)n2C1` (stereo partly drawn) [Example 11, 6-methyl-N—((S)-5-methyl-4-oxo-2,3,4,5-tetrahydrobenzo[b][1,4]oxazepin-3-yl)-5,6,7,8-tetrahydroimidazo[1,5-a]pyridine-3-carboxamide], with 0.329 µM. On the same count and under the same terms, the result for `CN1C(=O)[C@@H](NC(=O)c2n[nH]c3c2CCC(c2ccccc2)C3)COc2ccccc21` (stereo partly shown) [Example 12, N-(5-methyl-4-oxo-2,3,4,5-tetrahydrobenzo[b][1,4]oxazepin-3-yl)-6-phenyl-4,5,6,7-tetrahydro-1H-indazole-3-carboxamide] reads greater than 3.1 µM. The same measure, in the same setting: the result for `O=C(N[C@H]1COc2[nH]ncc2NC1=O)c1ccn(Cc2ccc(F)c(F)c2)n1` [Example 16, (S)-1-(3,4-difluorobenzyl)-N-(5-oxo-4,5,6,7-tetrahydro-1H-pyrazolo[3,4-b][1,4]oxazepin-6-yl)-1H-pyrazole-3-carboxamide] reads greater than 10 µM; that for `O=C(N[C@H]1COc2[nH]ncc2NC1=O)c1cn(Cc2ccc(F)c(F)c2)cn1` [Example 17, 1-[(3,4-difluorophenyl)methyl]-N-[(6S)-5-oxo-1,4,6,7-tetrahydropyrazolo[3,4-b][1,4]oxazepin-6-yl]imidazole-4-carboxamide], greater than 10 µM. With `CN1C(=O)[C@@H](NC(=O)c2n[nH]c3c2CC(n2cccn2)CC3)COc2ccccc21` (stereo partly drawn) [Example 20, N—((S)-5-methyl-4-oxo-2,3,4,5-tetrahydrobenzo[b][1,4]oxazepin-3-yl)-5-(1H-pyrazol-1-yl)-4,5,6,7-tetrahydro-1H-indazole-3-carboxamide], the Ki was 0.745 µM.

For `CN1C(=O)[C@@H](NC(=O)c2cc3c(cn2)COC3(C)C)COc2ccccc21` [Example 22, (S)-1,1-dimethyl-N-(5-methyl-4-oxo-2,3,4,5-tetrahydrobenzo[b][1,4]oxazepin-3-yl)-1,3-dihydrofuro[3,4-c]pyridine-6-carboxamide], the Ki was determined as 0.898 µM. On to `CN1C(=O)[C@@H](NC(=O)c2cc3c(cn2)CCCC3)COc2ccccc21` [Example 23, (S)—N-(5-methyl-4-oxo-2,3,4,5-tetrahydrobenzo[b][1,4]oxazepin-3-yl)-5,6,7,8-tetrahydroisoquinoline-3-carboxamide], for which the Ki was determined as 2 µM. Still for that read-out and setting: then `CN1C(=O)[C@@H](NC(=O)c2n[nH]c3c2CC(c2ccccc2)CC3)COc2ccccc21` (stereo partly drawn) [Example 24, N—((S)-5-methyl-4-oxo-2,3,4,5-tetrahydrobenzo[b][1,4]oxazepin-3-yl)-5-phenyl-4,5,6,7-tetrahydro-1H-indazole-3-carboxamide], with 0.0279 µM; and `CC1Cc2c(C(=O)N[C@H]3COc4[nH]ncc4NC3=O)n[nH]c2CO1` (stereo partly drawn) [Example 25, 5-methyl-N—((S)-5-oxo-4,5,6,7-tetrahydro-1H-pyrazolo[3,4-b][1,4]oxazepin-6-yl)-1,4,5,7-tetrahydropyrano[3,4-c]pyrazole-3-carboxamide], with greater than 10 µM; and `CN1C(=O)[C@@H](NC(=O)c2nnc(Cc3ccccc3)[nH]2)CCn2nccc21` [Example 27, (S)-5-benzyl-N-(4-methyl-5-oxo-5,6,7,8-tetrahydro-4H-pyrazolo [1,5-a][1,3]diazepin-6-yl)-4H-1,2,4-triazole-3-carboxamide], with 0.0454 µM. `Cc1cc2n(n1)CCC(NC(=O)c1nnc(Cc3ccccc3)[nH]1)C(=O)N2C` (stereo not shown) [Example 28, 5-benzyl-N-(2,4-dimethyl-5-oxo-5,6,7,8-tetrahydro-4H-pyrazolo[1,5-a][1,3]diazepin-6-yl)-4H-1,2,4-triazole-3-carboxamide]: the Ki amounted to 0.137 µM. Still for that read-out and setting: the result for `CN1C(=O)C(NC(=O)c2nnc(Cc3ccccc3)[nH]2)CCn2nc(C3CC3)cc21` (stereo not shown) [Example 29, 5-benzyl-N-(2-cyclopropyl-4-methyl-5-oxo-7,8-dihydro-6H-pyrazolo[1,5-a][1,3]diazepin-6-yl)-4H-1,2,4-triazole-3-carboxamide] reads 0.117 µM.

Still in this assay, the particulars now being: read-out: RIP1 Ki.
`CN1C(=O)[C@@H](NC(=O)c2n[nH]c3c2CC(C(C)(C)C)CC3)COc2ccccc21` (stereo partly drawn) [Example 3, 5-(tert-butyl)-N—((S)-5-methyl-4-oxo-2,3,4,5-tetrahydrobenzo[b][1,4]oxazepin-3-yl)-4,5,6,7-tetrahydro-1H-indazole-3-carboxamide]: the Ki came out at 0.0688 µM. With `CN1C(=O)[C@@H](NC(=O)c2n[nH]c3c2CC(C)(C)CC3)COc2ccccc21` [Example 18, 5,5-dimethyl-N-[(3S)-5-methyl-4-oxo-2,3-dihydro-1,5-benzoxazepin-3-yl]-1,4,6,7-tetrahydroindazole-3-carboxamide], the Ki is 0.415 µM.

The assay is the same for the next values; noted with them: tight-binding apparent inhibition constant; human RIP1 kinase domain (2-375) 50 nM, 50 uM ATP, 2 hours; read-out: Ki.
For `Cc1cc2n(n1)CC[C@H](NC(=O)c1ncn(CC3CC(C)C3)n1)C(=O)N2C` (stereo in doubt) [Example 491, 1-[(3-methylcyclobutyl)methyl]-N-(6S)-2,4-dimethyl-5-oxo-7,8-dihydro-6H-pyrazol[1,5-a][1,3]diazepin-6-yl-1,2,4-triazole-3-carboxamide], the Ki worked out at 0.037 µM.

`O=C(N[C@H]1COc2cc(F)cc(F)c2NC1=O)c1nc2n(n1)CCC2c1ccccc1` (stereo in doubt) [Example 625, (7S)-7-phenyl-N-[(3S)-6,8-difluoro-4-oxo-3,5-dihydro-2H-1,5-benzoxazepin-3-yl]-6,7-dihydro-5H-pyrrolo[1,2-b][1,2,4]triazole-2-carboxamide]: the Ki turned out to be 0.45 µM. Regarding `O=C(N[C@H]1COc2cc(F)cc(F)c2NC1=O)c1nc2n(n1)CCC2c1ccccc1` (stereo in doubt) [Example 626, (7R)-7-phenyl-N-[(3S)-6,8-difluoro-4-oxo-3,5-dihydro-2H-1,5-benzoxazepin-3-yl]-6,7-dihydro-5H-pyrrolo[1,2-b][1,2,4]triazole-2-carboxamide], the Ki was determined as 0.014 µM.

In the case of `CN1C(=O)[C@H](NC(=O)c2ncn(Cc3ccccc3)n2)CCn2nc([C@@H]3CC3(F)F)cc21` (stereo in doubt) [Example 675, 1-benzyl-N-[rac-(6R)-4-methyl-5-oxo-2-[rac-(1S)-2,2-difluorocyclopropyl]-7,8-dihydro-6H-pyrazolo[1,5-a] [1,3]diazepin-6-yl]-1,2,4-triazole-3-carcoxamide], the Ki came to 0.0164 µM. With `CN1C(=O)[C@@H](NC(=O)c2ncn(Cc3ccccc3)n2)CCn2nc([C@H]3CC3(F)F)cc21` (stereo in doubt) [Example 679, 1-benzyl-N-[rac-(6S)-4-methyl-5-oxo-2-[rac-(1R)-2,2-difluorocyclopropyl]-7,8-dihydro-6H-pyrazolo[1,5-a] [1,3diazepin-6-yl]-1,2,4-triazole-3-carboxamide], the Ki turned out to be 0.0216 µM. On the same count and under the same terms, the result for `CN1C(=O)[C@H](NC(=O)c2ncn(Cc3ccc(F)cc3)n2)CCn2nc(C3CC3)cc21` (stereo in doubt) [Example 680, 1-[(4-fluorophenyl)methyl]-N-[rac-(6R)-2-cyclopropyl-4-methyl-5-oxo-7,8-dihydro-6H-pyrazolo[1,5-a][1,3]diazepin-6-yl]-1,2,4-triazole-3-carboxamide] reads 9.2 µM; that for `CN1C(=O)[C@@H](NC(=O)c2ncn(Cc3ccc(F)cc3)n2)CCn2nc(C3CC3)cc21` (stereo in doubt) [Example 681, 1-[(4-fluorophenyl)methyl]-N-[rac-(6S)-2-cyclopropyl-4-methyl-5-oxo-7,8-dihydro-6H-pyrazolo[1,5-a][1,3]diazepin-6-yl]-1,2,4-triazole-3-carboxamide], 0.0237 µM.

For the origin of these results see patent US10988459B2 (priority 2015, dated 2021).
